Literature values in patent publication US20130039995A1, “DERMATOLOGICAL COMPOSITIONS COMPRISING AT LEAST ONE REINOID COMPOUND, AN ANTI-IRRITANT COMPOUND AND BENZOYL PEROXIDE” (Galderma Research & Development, priority 2007, published 2013).

In the case of `O=C(OOC(=O)c1ccccc1)c1ccccc1` [benzoyl peroxide], the “degradation of benzoyl peroxide in solution” value (in solution in ethanol, propylene glycol and mixtures of PEG 400 and water, depends on type of solvent and its concentration) is listed as “degrades more or less rapidly” and the “degradation of benzoyl peroxide in suspension on storage” value (in suspension (disperse form) in water and in propylene glycol, after 90 days of storage) is listed as “not degraded”.
